Reference: US12383556B2, “Methods of treating Sjögren's syndrome using a Bruton's tyrosine kinase inhibitor” (NOVARTIS AG, priority 2019, dated 2025)
Like-named read-outs stand apart in the source and are kept apart here.

Test: First-in-human Part 2 multiple ascending dose q.d. blood and urine PK
Assay type: in vivo
Settings: human, oral; for Cmax: read-out: Cmax; for MRT: read-out: MRT; for Vd/F: read-out: Vss/F; for half-life: read-out: T½ (converted)
Excerpt: First-in-human study in up to approximately 168 healthy volunteers (HVs), of which 64 (in Parts 2 & 4) had asymptomatic atopic diathesis. • Part 1 was a double-blind (subject and investigator blind, sponsor unblinded), placebo-controlled single ascending dose (SAD) escalation study of 10 cohorts (N=80) • Part 2 was a double-blind (subject and investigator blind, sponsor unblinded), placebo-controlled multiple ascending dose (MAD) (13 doses over 12 days) escalation study employing once daily dosing in 6 cohorts in healthy volunteers with asymptomatic atopic diathesis (N=48) • Part 3 was a single dose open-label crossover food effect study in 12 HVs • Part 4 was a double-blind (subject and investigator blind, sponsor unblinded), placebo-controlled multiple dose (25 doses over 12 days) study employing twice daily dosing in 2 cohorts of healthy volunteers with asymptomatic atopic diathesis (N=16)
In Parts 2 and 4, subjects were admitted on Day −2 or −1 for baseline safety assessments and to confirm eligibility. Eligible subjects received the first dose of compound (I) under fasting conditions on Day 1, and continued to take study medication under fasting conditions up to and including Day 12. Subjects were domiciled from Day −2 or −1 until the morning of Day 16, which equals 96 hours after the last dose of compound (I) was received. In Parts 2 and 4, the study medication was given once daily and twice daily respectively (details are found in the schedule of assessments).
Subjects were assigned to one of the following 6 cohorts. In each cohort, 8 subjects were randomized to either compound (I) or matching placebo in a 6:2 ratio. • Cohort 1: multiple oral doses of 10 mg compound (I) or matching placebo • Cohort 2: multiple oral doses of 25 mg compound (I) or matching placebo • Cohort 3: multiple oral doses of 50 mg compound (I) or matching placebo • Cohort 4: multiple oral doses of 100 mg compound (I) or matching placebo • Cohort 5: multiple oral doses of 400 mg compound (I) or matching placebo • Cohort 6: multiple oral doses of up to 600 mg compound (I) or matching placebo
Pharmacokinetic samples were obtained in blood and evaluated in all subjects at all dose levels. The samples from placebo subjects were not analyzed. The samples for PK assessments from subjects were collected at time points defined in the study. Compound (I) concentrations were determined in blood by a validated LC-MS/MS method.

[1] = blood, 10 mg, 10 mg qd, Day 1, blood, Median (Min-Max)
[2] = blood, 10 mg, 10 mg qd, Day 12, blood, Median (Min-Max)
[3] = blood, 25 mg, 25 mg qd, Day 1, blood, Median (Min-Max)
[4] = blood, 25 mg, 25 mg qd, Day 12, blood, Median (Min-Max)
[5] = blood, 50 mg, 50 mg qd, Day 1, blood, Median (Min-Max)
[6] = blood, 50 mg, 50 mg qd, Day 12, blood, Median (Min-Max)
[7] = blood, 100 mg, 100 mg qd, Day 12, blood, Median (Min-Max)
[8] = blood, 400 mg, 400 mg qd, Day 12, blood, Median (Min-Max)
[9] = blood, 600 mg, 600 mg qd, Day 12, blood, Median (Min-Max)

SMILES: C=CC(=O)N(C)CCOc1c(N)ncnc1-c1cc(F)cc(NC(=O)c2ccc(C3CC3)cc2F)c1C [Compound of Formula (I), N-(3-(6-Amino-5-(2-(N-methylacrylamido)ethoxy)pyrimidin-4-yl)-5-fluoro-2-methylphenyl)-4-cyclopropyl-2-fluorobenzamide]
- AUC(0-t) (blood, 10 mg, 10 mg qd, Day 1, blood, Median (Min-Max), read-out: AUClast): 4.4 ng·h/mL
- Cmax [1]: 8.03 ng/mL
- MRT [1]: 0.766 h
- Vd/F (blood, 10 mg, 10 mg qd, Day 12, blood, Mean ± SD): 554 ± 90.4 L
- Tmax [2]: 0.625 h
- Cmax [2]: 17.2 ng/mL
- Vd/F [2]: 562 L
- AUC(0-t) (blood, 25 mg, 25 mg qd, Day 1, blood, Mean ± SD, read-out: AUC0-24): 44.9 ± 25.2 ng·h/mL
- AUC(0-t) (blood, 25 mg, 25 mg qd, Day 1, blood, Mean ± SD, read-out: AUClast): 43.9 ± 24.6 ng·h/mL
- MRT (blood, 25 mg, 25 mg qd, Day 1, blood, Mean ± SD): 1.18 ± 0.49 h
- AUC(0-t) (blood, 25 mg, 25 mg qd, Day 1, blood, Median (Min-Max), read-out: AUC0-24): 46.6 ng·h/mL
- AUC(0-t) (blood, 25 mg, 25 mg qd, Day 1, blood, Median (Min-Max), read-out: AUClast): 45.5 ng·h/mL
- Cmax [3]: 37.3 ng/mL
- MRT [3]: 1.17 h
- Vd/F (blood, 25 mg, 25 mg qd, Day 12, blood, Mean ± SD): 407 ± 208 L
- Cmax [4]: 78.4 ng/mL
- Vd/F [4]: 334 L
- AUC(0-t) (blood, 50 mg, 50 mg qd, Day 1, blood, Mean ± SD, read-out: AUC0-24): 116 ± 32.9 ng·h/mL
- AUC(0-t) (blood, 50 mg, 50 mg qd, Day 1, blood, Mean ± SD, read-out: AUClast): 113 ± 34.2 ng·h/mL
- MRT (blood, 50 mg, 50 mg qd, Day 1, blood, Mean ± SD): 2.53 ± 1.17 h
- Tmax [5]: 0.5 h
- AUC(0-t) (blood, 50 mg, 50 mg qd, Day 1, blood, Median (Min-Max), read-out: AUC0-24): 107 ng·h/mL
- AUC(0-t) (blood, 50 mg, 50 mg qd, Day 1, blood, Median (Min-Max), read-out: AUClast): 103 ng·h/mL
- Cmax [5]: 70.1 ng/mL
- MRT [5]: 2.44 h
- Vd/F (blood, 50 mg, 50 mg qd, Day 12, blood, Mean ± SD): 431 ± 172 L
- Tmax [6]: 1 h
- Vd/F [6]: 346 L
- MRT (blood, 100 mg, 100 mg qd, Day 1, blood, Median (Min-Max)): 2.16 h
- Vd/F (blood, 100 mg, 100 mg qd, Day 12, blood, Mean ± SD): 1910 ± 2780 L
- Cmax [7]: 205 ng/mL
- Vd/F [7]: 338 L
- AUC(0-t) (blood, 400 mg, 400 mg qd, Day 1, blood, Median (Min-Max), read-out: AUC0-24): 826 ng·h/mL
- AUC(0-t) (blood, 400 mg, 400 mg qd, Day 1, blood, Median (Min-Max), read-out: AUClast): 826 ng·h/mL
- MRT (blood, 400 mg, 400 mg qd, Day 1, blood, Median (Min-Max)): 2.94 h
- Vd/F (blood, 400 mg, 400 mg qd, Day 12, blood, Mean ± SD): 4400 ± 3340 L
- Cmax [8]: 476 ng/mL
- Vd/F [8]: 3440 L
- AUC(0-t) (blood, 600 mg, 600 mg qd, Day 1, blood, Median (Min-Max), read-out: AUC0-24): 932 ng·h/mL
- AUC(0-t) (blood, 600 mg, 600 mg qd, Day 1, blood, Median (Min-Max), read-out: AUClast): 931 ng·h/mL
- MRT (blood, 600 mg, 600 mg qd, Day 1, blood, Median (Min-Max)): 3.22 h
- Vd/F (blood, 600 mg, 600 mg qd, Day 12, blood, Mean ± SD): 7130 ± 5120 L
- Cmax [9]: 475 ng/mL
- Vd/F [9]: 7070 L
- concentration at 24 h (blood, multiple doses, typical, read-out: blood concentration at 24 hours post last dose): < 1 ng/mL
- AUC(0-inf) (whole blood, 10 mg, 10 mg qd, Day 12, blood, Mean ± SD): 24.7 ± 3.65 ng·h/mL
- AUC(0-t) (whole blood, 10 mg, 10 mg qd, Day 12, blood, Mean ± SD, read-out: AUC0-24): 24 ± 3.6 ng·h/mL
- AUC(0-t) (whole blood, 10 mg, 10 mg qd, Day 12, blood, Mean ± SD, read-out: AUClast): 22.9 ± 3.5 ng·h/mL
- AUC(0-inf) (whole blood, 10 mg, 10 mg qd, Day 12, blood, Median (Min-Max)): 24.3 ng·h/mL
- AUC(0-t) (whole blood, 10 mg, 10 mg qd, Day 12, blood, Median (Min-Max), read-out: AUC0-24): 23.6 ng·h/mL
- AUC(0-t) (whole blood, 10 mg, 10 mg qd, Day 12, blood, Median (Min-Max), read-out: AUClast): 22.4 ng·h/mL
- AUC(0-inf) (whole blood, 25 mg, 25 mg qd, Day 12, blood, Mean ± SD): 117 ± 60.4 ng·h/mL
- AUC(0-t) (whole blood, 25 mg, 25 mg qd, Day 12, blood, Mean ± SD, read-out: AUC0-24): 117 ± 60.9 ng·h/mL
- AUC(0-t) (whole blood, 25 mg, 25 mg qd, Day 12, blood, Mean ± SD, read-out: AUClast): 114 ± 59.7 ng·h/mL
- AUC(0-inf) (whole blood, 25 mg, 25 mg qd, Day 12, blood, Median (Min-Max)): 102 ng·h/mL
- AUC(0-t) (whole blood, 25 mg, 25 mg qd, Day 12, blood, Median (Min-Max), read-out: AUC0-24): 101 ng·h/mL
- AUC(0-t) (whole blood, 25 mg, 25 mg qd, Day 12, blood, Median (Min-Max), read-out: AUClast): 98.2 ng·h/mL
- AUC(0-inf) (whole blood, 50 mg, 50 mg qd, Day 12, blood, Mean ± SD): 209 ± 80 ng·h/mL
- AUC(0-t) (whole blood, 50 mg, 50 mg qd, Day 12, blood, Mean ± SD, read-out: AUC0-24): 209 ± 80.2 ng·h/mL
- AUC(0-t) (whole blood, 50 mg, 50 mg qd, Day 12, blood, Mean ± SD, read-out: AUClast): 207 ± 80.4 ng·h/mL
- AUC(0-inf) (whole blood, 50 mg, 50 mg qd, Day 12, blood, Median (Min-Max)): 181 ng·h/mL
- AUC(0-t) (whole blood, 50 mg, 50 mg qd, Day 12, blood, Median (Min-Max), read-out: AUC0-24): 181 ng·h/mL
- AUC(0-t) (whole blood, 50 mg, 50 mg qd, Day 12, blood, Median (Min-Max), read-out: AUClast): 179 ng·h/mL
- AUC(0-inf) (whole blood, 100 mg, 100 mg qd, Day 12, blood, Mean ± SD): 577 ± 207 ng·h/mL
- AUC(0-inf) (whole blood, 100 mg, 100 mg qd, Day 12, blood, Median (Min-Max)): 595 ng·h/mL
- AUC(0-t) (whole blood, 100 mg, 100 mg qd, Day 12, blood, Median (Min-Max), read-out: AUC0-24): 429 ng·h/mL
- AUC(0-t) (whole blood, 100 mg, 100 mg qd, Day 12, blood, Median (Min-Max), read-out: AUClast): 444 ng·h/mL
- AUC(0-inf) (whole blood, 400 mg, 400 mg qd, Day 12, blood, Mean ± SD): 1330 ± 608 ng·h/mL
- AUC(0-inf) (whole blood, 400 mg, 400 mg qd, Day 12, blood, Median (Min-Max)): 1210 ng·h/mL
- AUC(0-t) (whole blood, 400 mg, 400 mg qd, Day 12, blood, Median (Min-Max), read-out: AUC0-24): 1140 ng·h/mL
- AUC(0-t) (whole blood, 400 mg, 400 mg qd, Day 12, blood, Median (Min-Max), read-out: AUClast): 1180 ng·h/mL
- AUC(0-inf) (whole blood, 600 mg, 600 mg qd, Day 12, blood, Mean ± SD): 1260 ± 338 ng·h/mL
- AUC(0-inf) (whole blood, 600 mg, 600 mg qd, Day 12, blood, Median (Min-Max)): 1090 ng·h/mL
- AUC(0-t) (whole blood, 600 mg, 600 mg qd, Day 12, blood, Median (Min-Max), read-out: AUC0-24): 1060 ng·h/mL
- half-life (whole blood, 10 mg qd, Day 12, blood, Median (Min-Max)): 0.961 h
- half-life (whole blood, 25 mg qd, Day 12, blood, Median (Min-Max)): 1.15 h
- half-life (whole blood, 50 mg qd, Day 12, blood, Median (Min-Max)): 1.15 h
